The NIST ThermoML archive (doi:10.1021/je060271a)

Settings: 303.15 K, Liquid, Vibrating tube method

CCCCCCC(=O)OCC(COC(=O)CCCCCC)(COC(=O)CCCCCC)COC(=O)CCCCCC [pentaerythritol tetraheptanoate]
Settings | mass density [kg/m3]
21619 kPa | 983.7
21662 kPa | 983.7
21713 kPa | 983.7
21752 kPa | 983.7
21789 kPa | 983.5
21831 kPa | 983.9
21867 kPa | 983.8
21902 kPa | 983.8
22017 kPa | 983.9
22097 kPa | 984
22133 kPa | 983.9
22169 kPa | 984.1
22213 kPa | 984
22250 kPa | 983.9
22286 kPa | 984.1
22330 kPa | 984.1
22368 kPa | 984.2
22406 kPa | 984.1
22450 kPa | 984.2
22567 kPa | 984.2
22651 kPa | 984.2
22689 kPa | 984.3
22735 kPa | 984.3
22774 kPa | 984.3
22813 kPa | 984.3
22853 kPa | 984.3
22901 kPa | 984.4
23031 kPa | 984.5
23066 kPa | 984.4
23098 kPa | 984.5
23130 kPa | 984.5
23162 kPa | 984.4
23201 kPa | 984.5
23233 kPa | 984.6
23266 kPa | 984.7
23304 kPa | 984.6
23337 kPa | 984.5
23376 kPa | 984.7
23409 kPa | 984.6
23442 kPa | 984.6
23475 kPa | 984.8
23516 kPa | 984.8
23549 kPa | 984.7
23582 kPa | 984.8
23622 kPa | 984.7
23797 kPa | 984.9
23831 kPa | 985
23873 kPa | 984.9
23908 kPa | 985
23943 kPa | 985
23985 kPa | 985
24019 kPa | 984.9
24054 kPa | 985
24201 kPa | 985.1
24243 kPa | 985.2
24278 kPa | 985.2
24320 kPa | 985.2
24392 kPa | 985.2
24436 kPa | 985.2
24472 kPa | 985.4
24509 kPa | 985.1
24545 kPa | 985.2
24588 kPa | 985.3
24624 kPa | 985.4
24661 kPa | 985.3
24706 kPa | 985.3
24743 kPa | 985.5
24780 kPa | 985.5
24825 kPa | 985.4
24863 kPa | 985.4
24901 kPa | 985.4
24947 kPa | 985.5
24984 kPa | 985.5
25022 kPa | 985.6
25060 kPa | 985.5
25106 kPa | 985.6
25144 kPa | 985.5
25182 kPa | 985.7
25228 kPa | 985.7
25267 kPa | 985.6
25306 kPa | 985.6
25353 kPa | 985.7
25392 kPa | 985.7
25431 kPa | 985.8
25472 kPa | 985.7
25520 kPa | 985.8
25560 kPa | 986
25601 kPa | 986
25648 kPa | 985.9
25688 kPa | 985.8
25729 kPa | 985.9
25778 kPa | 985.9
25818 kPa | 986
25860 kPa | 986
25901 kPa | 986.1
25951 kPa | 986
25994 kPa | 986
26038 kPa | 986
26079 kPa | 986.1
26130 kPa | 986.1
26172 kPa | 986.2
26215 kPa | 986.2
26266 kPa | 986.2
26309 kPa | 986.3
26347 kPa | 986.3
26391 kPa | 986.3
26429 kPa | 986.4
26466 kPa | 986.4
26512 kPa | 986.4
26551 kPa | 986.4
26590 kPa | 986.3
26628 kPa | 986.5
26666 kPa | 986.5
26712 kPa | 986.5
26749 kPa | 986.4
26795 kPa | 986.4
26834 kPa | 986.6
26872 kPa | 986.6
26910 kPa | 986.6
26957 kPa | 986.6
26996 kPa | 986.6
27043 kPa | 986.5
27083 kPa | 986.7
27122 kPa | 986.7
27169 kPa | 986.7
27209 kPa | 986.8
27249 kPa | 986.7
27289 kPa | 987
27337 kPa | 986.8
27376 kPa | 986.8
27425 kPa | 986.9
27465 kPa | 987
27506 kPa | 986.9
27555 kPa | 986.8
27596 kPa | 986.9
27638 kPa | 986.9
27679 kPa | 987.1
27728 kPa | 987
27770 kPa | 987
27811 kPa | 987.1
27861 kPa | 987.1
27904 kPa | 987
27954 kPa | 987.1
27997 kPa | 987.2
28082 kPa | 987.3
28133 kPa | 987.4
28176 kPa | 987.3
28221 kPa | 987.4
28273 kPa | 987.3
28316 kPa | 987.3
28360 kPa | 987.4
28404 kPa | 987.3
28457 kPa | 987.4
28501 kPa | 987.5
28545 kPa | 987.5
28598 kPa | 987.5
28642 kPa | 987.5
28687 kPa | 987.5
28740 kPa | 987.6
28785 kPa | 987.6
28832 kPa | 987.7
28886 kPa | 987.6
28932 kPa | 987.7
28977 kPa | 987.6
29023 kPa | 987.9
29079 kPa | 987.7
29125 kPa | 987.7
29181 kPa | 987.8
29227 kPa | 987.9
29274 kPa | 987.9
29321 kPa | 987.9
29379 kPa | 987.9
29475 kPa | 988
29523 kPa | 988.1
29581 kPa | 988
29630 kPa | 988
29679 kPa | 988.1
29739 kPa | 988.1
29790 kPa | 988.1
29841 kPa | 988.3
29903 kPa | 988.1
29949 kPa | 988.3
29986 kPa | 988.3
30029 kPa | 988.3
30067 kPa | 988.3
30103 kPa | 988.3
30138 kPa | 988.3
30182 kPa | 988.4
30218 kPa | 988.3
30253 kPa | 988.3
30297 kPa | 988.2
30334 kPa | 988.4
30370 kPa | 988.5
30407 kPa | 988.5
30451 kPa | 988.5
30489 kPa | 988.5
30527 kPa | 988.5
30576 kPa | 988.6
30613 kPa | 988.5
30651 kPa | 988.6
30698 kPa | 988.6
30738 kPa | 988.8
30778 kPa | 988.7
30814 kPa | 988.7
30846 kPa | 988.7
30873 kPa | 988.8
30905 kPa | 988.7
30932 kPa | 988.8
30958 kPa | 988.8
30990 kPa | 988.8
31018 kPa | 988.8
31045 kPa | 988.8
31072 kPa | 988.9
31105 kPa | 988.9
31132 kPa | 988.9
31159 kPa | 988.8
31192 kPa | 989
31220 kPa | 988.9
31252 kPa | 989
31280 kPa | 988.9
31308 kPa | 989.1
31335 kPa | 989
31369 kPa | 989.1
31398 kPa | 988.8
